One experiment deals with T1, human 17β-HSD 2 (Homo sapiens, UniProt P37059).
T1 construct: made in house; host or cells: E.coli BL21 DE3 Codon Plus RP
T1 sequence (P37059 1-387): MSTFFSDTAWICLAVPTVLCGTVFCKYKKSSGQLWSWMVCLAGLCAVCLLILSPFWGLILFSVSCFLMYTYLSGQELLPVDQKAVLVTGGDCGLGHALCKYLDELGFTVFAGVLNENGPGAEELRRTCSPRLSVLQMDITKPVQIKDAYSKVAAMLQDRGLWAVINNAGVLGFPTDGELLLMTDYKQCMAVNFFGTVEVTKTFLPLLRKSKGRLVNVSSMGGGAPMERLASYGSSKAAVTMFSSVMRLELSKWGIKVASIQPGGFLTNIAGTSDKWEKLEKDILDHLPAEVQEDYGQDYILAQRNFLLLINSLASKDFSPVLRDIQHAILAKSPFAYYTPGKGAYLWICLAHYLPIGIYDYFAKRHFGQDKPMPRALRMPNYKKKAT
The experiment is described as follows: In vitro enzymatic activity, recombinant human 17β-HSD 2 (estradiol oxidation). The class given is biochemical. The conditions noted are these: 2 µM compound, 21 nM 3H-estradiol, NAD+, pH 7.7, read-out: Observed % inhibition. The source says: (§1) Full length cDNAs of several 17β-HSDs type 1 originating from different species were cloned either into the pQE30 vector (human 17β-HSD 1, coding for acc. no. NP_000404) for expression as His-Tag protein or into a modified pGex-2T vector [63] (mouse 17β-HSD 1, acc. no. NP_034605; rat 17β-HSD 1, acc. no. NP_036983; marmoset 17β-HSD 1, acc. no. AAG01115; porcine 17β-HSD 1, acc. no. NP_001121944) for expression as GST-fusion proteins. The marmoset 17β-HSD 1 enzyme sequence was updated by the missing N-terminal part (AF272013) and the new porcine sequence was submitted to GenBank (NP_001121944). Human 17β-HSDs 2, 4, 5 (AKR1C3, the latter kindly provided by Dr. T. Penning) and 7 were all cloned into the modified pGEX-2T vector. For 17β-HSD 4 only the SDR-domain converting the steroids was subcloned. Plasmids were transformed into E.coli BL21 DE3 Codon Plus RP (Stratagene) and enzyme expression was induced by 0.5 mM IPTG. After 4h incubation at 37°C with continuous shaking bacteria were pelleted by centrifugation at 10.000×g. Pellets were stored until use at −20°C.
(§2) The bacteria containing recombinant enzymes were resuspended in PBS and enzymatic assays were performed in 100 mM sodium phosphate buffer at pH 6.6 for the reductive reaction and at pH 7.7 for the oxidative reaction. […] All substrates were purchased from NEN/Perkin Elmer. The cofactors NADPH (Sigma; for reductive reactions) and NAD^+ (Serva, for oxidative reactions) were used at final concentrations of 0.5 mg/ml. […] The incubation at 37°C was stopped with 0.21 M ascorbic acid in methanol∶acetic acid 99∶1 (v∶v) after the time needed to convert approximately 30% of the substrate in a control assay with 1% DMSO, without inhibitor candidates. […] The solvent used was acetonitrile∶water (43∶57, v∶v) at a flow rate of 1 ml/min. Radioactivity was detected by online-scintillation counting (Berthold LB506D) after mixing with ReadyFlowIII (Beckman). Conversion was calculated from integration of substrate and product peaks. […] All assays were run in duplicates of two independent experiments and mean values are reported. The IC50 values were determined by the One Ligand Binding model of SigmaPlot kinetics module.

In experiment [1] the test system is 17β-HSD 1 orthologs of five species. In words: In vitro enzymatic activity, 17β-HSD 1 orthologs of five species taken together. The class given is biochemical, human, marmoset, mouse, pig, rat. The conditions noted are these: average over the 17β-HSD 1 orthologs of the species; 2 µM compound.
A further experiment has as its target T2, human 17β-HSD 4 (Homo sapiens, UniProt P51659).
T2 construct: For 17β-HSD 4 only the SDR-domain converting the steroids was subcloned; made in house; host or cells: E.coli BL21 DE3 Codon Plus RP
T2 sequence (P51659 1-305 limits assumed): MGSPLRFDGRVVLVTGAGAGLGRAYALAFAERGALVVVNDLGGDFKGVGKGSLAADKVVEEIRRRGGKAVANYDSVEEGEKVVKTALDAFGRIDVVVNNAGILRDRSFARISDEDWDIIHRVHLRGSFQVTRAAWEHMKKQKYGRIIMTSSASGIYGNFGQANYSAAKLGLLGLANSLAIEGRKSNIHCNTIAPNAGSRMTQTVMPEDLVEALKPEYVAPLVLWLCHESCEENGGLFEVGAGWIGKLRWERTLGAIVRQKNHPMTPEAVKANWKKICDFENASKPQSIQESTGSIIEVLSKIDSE
The experiment is described as follows: In vitro enzymatic activity, recombinant human 17β-HSD 4 SDR-domain (estradiol oxidation). The class given is biochemical. As to conditions: 2 µM compound, 21 nM 3H-estradiol, NAD+, pH 7.7.
Excerpt: as §1, §2

In another experiment the target is T3, human 17β-HSD 7 (Homo sapiens, UniProt P56937).
T3 construct: made in house; host or cells: E.coli BL21 DE3 Codon Plus RP
T3 sequence (P56937 1-341): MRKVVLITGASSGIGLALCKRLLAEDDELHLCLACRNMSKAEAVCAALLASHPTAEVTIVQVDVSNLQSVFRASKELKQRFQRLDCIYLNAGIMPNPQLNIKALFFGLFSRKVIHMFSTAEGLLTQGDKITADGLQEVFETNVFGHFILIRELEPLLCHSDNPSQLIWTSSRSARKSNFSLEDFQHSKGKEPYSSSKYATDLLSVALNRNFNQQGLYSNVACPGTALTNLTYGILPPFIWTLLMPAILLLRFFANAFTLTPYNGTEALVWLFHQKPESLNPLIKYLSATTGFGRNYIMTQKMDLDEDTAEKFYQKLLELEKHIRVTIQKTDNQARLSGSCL
The experiment is described as follows: In vitro enzymatic activity, recombinant human 17β-HSD 7 (estrone reduction). The class given is biochemical. The conditions noted are these: 2 µM compound, 15 nM 3H-estrone, NADPH, pH 6.6, read-out: Observed % inhibition.
Excerpt: as §1, §2

Another experiment deals with T4, porcine 17β-HSD 1 (Sus scrofa, UniProt B2X0A4).
T4 sequence (B2X0A4 1-321): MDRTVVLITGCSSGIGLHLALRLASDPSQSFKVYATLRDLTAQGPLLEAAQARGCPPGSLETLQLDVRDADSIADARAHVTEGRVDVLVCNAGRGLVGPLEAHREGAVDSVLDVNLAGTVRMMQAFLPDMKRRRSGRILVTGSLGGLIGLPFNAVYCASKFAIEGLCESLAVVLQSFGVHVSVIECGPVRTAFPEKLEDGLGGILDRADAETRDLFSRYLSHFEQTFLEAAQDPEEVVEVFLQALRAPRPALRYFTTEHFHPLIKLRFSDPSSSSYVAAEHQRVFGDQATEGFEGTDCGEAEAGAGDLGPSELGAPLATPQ
The experiment is described as follows: In vitro enzymatic activity, recombinant porcine 17β-HSD 1. The class given is biochemical, pig. As to conditions: for pIC50: Pig 17β-HSD 1, 0.005 µM to 5 µM inhibitor; for inhibition at 2 µM: read-out: Observed % inhibition.
Excerpt: as §1, §2

[2] abbreviates: pig 17β-HSD 1, 2 µM compound, 15 nM 3H-estrone.

pIC50: −log10 of the molar value. Read-outs that look alike come from different tables or passages of the source.

As to `C[C@]12CC[C@@H]3c4ccc(O)cc4CC[C@H]3[C@@H]1[C@@H](CNC(=O)c1ccc(F)cc1)CC2=O` [Compound 1], the inhibition at 2 µM at human 17β-HSD 2 was -4.3%; on human 17β-HSD 7, -3.6%. The “Observed % inhibition, average” value in experiment [1] was found to be 42.1%. Also, the Observed % inhibition at human 17β-HSD 4 is reported as 7.2%.

With `C[C@]12CC[C@@H]3c4ccc(O)cc4CC[C@H]3[C@@H]1[C@@H](CCCC(=O)N1CCOCC1)CC2=O` [Compound 2], the pIC50 on porcine 17β-HSD 1 is 6.34. Further, the inhibition at 2 µM was 67% on porcine 17β-HSD 1 (setting [2]), 16.7% at human 17β-HSD 2 and -7.1% on human 17β-HSD 7. The “Observed % inhibition, average” value in experiment [1] turned out to be 52.2%. Also, at human 17β-HSD 4, the Observed % inhibition was 0.1%.

`Cc1cnc(NC(=O)CC[C@@H]2CC(=O)[C@@]3(C)CC[C@@H]4c5ccc(O)cc5CC[C@H]4[C@H]23)s1` [Compound 3]: the pIC50 on porcine 17β-HSD 1 was 9.47. The results for the inhibition at 2 µM on porcine 17β-HSD 1 (setting [2]), on human 17β-HSD 2 and on human 17β-HSD 7 were 105%, 18.6% and -9%, respectively. Moreover, the “Observed % inhibition, average” value in experiment [1] came to 66.7%. The Observed % inhibition on human 17β-HSD 4 was 2.1%.

For `COc1ccc(-c2cn(CCC[C@H]3CC(=O)[C@@]4(C)CC[C@@H]5c6ccc(O)cc6CC[C@H]5[C@H]34)nn2)cc1` [Compound 4], the inhibition at 2 µM was 66.2% at porcine 17β-HSD 1, -0.3% at human 17β-HSD 2 and -5.8% on human 17β-HSD 7. In addition, in experiment [1], the “Observed % inhibition, average” value amounted to 57.0%. Also, at human 17β-HSD 4, the Observed % inhibition is on record as 5.5%.

For `C[C@]12CC[C@@H]3c4ccc(O)cc4CC[C@H]3[C@@H]1C[C@H](CC(=O)NCc1cccnc1)C2=O` [Compound 5, reference compound], the results for the inhibition at 2 µM on porcine 17β-HSD 1 (setting [2]), on human 17β-HSD 2 and at human 17β-HSD 7 were 95.7%, -3.2% and 0%, respectively. Further, the “Observed % inhibition, average” value in experiment [1] is reported as 48.4%. Moreover, the Observed % inhibition on human 17β-HSD 4 turned out to be 5.6%.

Values taken from PMC2882332, “Species Used for Drug Testing Reveal Different Inhibition Susceptibility for 17beta-Hydroxysteroid Dehydrogenase Type 1” (PLoS ONE, 2010).
